Common to all, as to assay: Bacterial growth minimal inhibitory concentration (microdilution, cation-adjusted Mueller-Hinton Broth)
One assay relates to S. aureus A798. The assay is classed as cell-based, Staphylococcus aureus. The note with it: Staphylococcus aureus, A798; multiply-resistant strain (methicillin- and quinolone-resistant). An outline of the steps: (§1)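 Broth microdilution in cation-adjusted Mueller-Hinton Broth per CLSI M7-A7; MICs in mg/L. S. aureus A798 is methicillin- and quinolone-resistant, K. pneumoniae T6474 penicillin-, cephalosporin- and quinolone-resistant; E. coli ATCC25922 and P. aeruginosa ATCC 27853 are quinolone-sensitive.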

For the next assay, the system named is E. coli ATCC25922. The assay is classed as cell-based. The note with it: Escherichia coli, ATCC25922; quinolone-sensitive strain. The method, boiled down: as §1
For another assay, the system named is K. pneumoniae T6474. The assay is classed as cell-based, Klebsiella pneumoniae. The note with it: Klebsiella pneumoniae, T6474; multiply-resistant strain (penicillin-, cephalosporin- and quinolone-resistant). The method, boiled down: as §1
A further assay has as its system P. aeruginosa ATCC 27853. The class given is cell-based, Pseudomonas aeruginosa. The note with it: Pseudomonas aeruginosa, ATCC27853; quinolone-sensitive strain. The method, boiled down: as §1

From patent publication US9850256B2, “Antibacterial basic biaromatic derivatives with aminoalkoxy substitution” (priority 2014, dated 2017) come the findings set out here.

By MIC is commonly meant the smallest concentration in the dilution series that meets the test's criterion for growth inhibition. Higher therefore signals a need for much substance.

Converted amounts (≈) assume the structure as drawn.

On to `C[C@H]1C[C@H](Oc2cccc(-c3cccc(CNCC[C@H]4CN(c5ccc6c(n5)NC(=O)CO6)C(=O)O4)c3)n2)CN1C` [Example $175, 6-[(S)-5-(2-{3-[6-((3S,5S)-1,5-dimethyl-pyrrolidin-3-yloxy)-pyridin-2-yl]-benzylamino}-ethyl)-2-oxo-oxazolidin-3-yl]-4H-pyrido[3,2-b][1,4]oxazin-3-one], for which the MIC against S. aureus A798 came to 0.25 µg/mL (≈ 0.448 µM); against E. coli ATCC25922 it was 2 µg/mL (≈ 3.58 µM); against K. pneumoniae T6474 it was 4 µg/mL (≈ 7.16 µM); with P. aeruginosa ATCC 27853 it was 4 µg/mL (≈ 7.16 µM).
As to `O=C1COc2ccc(N3C[C@H](CCNCc4cccc(-c5cccc(OCCN6CCCC6)n5)c4)OC3=O)nc2N1` [Example 9, 6-[(S)-2-oxo-5-(2-{3-[6-(2-pyrrolidin-1-yl-ethoxy)-pyridin-2-yl]-benzylamino}-ethyl)-oxazolidin-3-yl]-4H-pyrido[3,2-b][1,4]oxazin-3-one], the MIC was 0.125 µg/mL (≈ 0.224 µM) against S. aureus A798, 2 µg/mL (≈ 3.58 µM) against E. coli ATCC25922, 1 µg/mL (≈ 1.79 µM) against K. pneumoniae T6474 and 2 µg/mL (≈ 3.58 µM) in the assay on P. aeruginosa ATCC 27853.
With `NCCOc1cncc(-c2cccc(CNCC[C@H]3CN(c4ccc5c(n4)NC(=O)CO5)C(=O)O3)c2)n1` [Example 15, 6-[(S)-5-(2-{3-[6-(2-amino-ethoxy)-pyrazin-2-yl]-benzylamino}-ethyl)-2-oxo-oxazolidin-3-yl]-4H-pyrido[3,2-b][1,4]oxazin-3-one], the MIC was determined as 0.5 µg/mL (≈ 0.989 µM) against S. aureus A798, 1 µg/mL (≈ 1.98 µM) with E. coli ATCC25922, 2 µg/mL (≈ 3.96 µM) against K. pneumoniae T6474 and 1 µg/mL (≈ 1.98 µM) in the assay with P. aeruginosa ATCC 27853.
For `COc1cc(OCCN)cc(-c2ccnc(CNCC[C@H]3CN(c4ccc5c(n4)NC(=O)CO5)C(=O)O3)c2)n1` [Example $162, 6-[(S)-5-(2-{[4-(2-amino-ethoxy)-6-methoxy-[2,4′]bipyridinyl-2′-ylmethyl]-amino}-ethyl)-2-oxo-oxazolidin-3-yl]-4H-pyrido[3,2-b][1,4]oxazin-3-one], the MIC against S. aureus A798, in the assay with E. coli ATCC25922, with K. pneumoniae T6474 and in the assay on P. aeruginosa ATCC 27853 was 1 µg/mL (≈ 1.87 µM) each time.
With `CN1CC[C@H]1COc1cccc(-c2cccc(CNCC[C@H]3CN(c4ccc5c(n4)NC(=O)CO5)C(=O)O3)c2)n1` [Example $123, 6-[(S)-5-(2-{3-[6-((S)-1-methyl-azetidin-2-ylmethoxy)-pyridin-2-yl]-benzylamino}-ethyl)-2-oxo-oxazolidin-3-yl]-4H-pyrido[3,2-b][1,4]oxazin-3-one], the MIC in the assay with S. aureus A798 amounted to 0.25 µg/mL (≈ 0.459 µM); against E. coli ATCC25922 it was 1 µg/mL (≈ 1.84 µM); against K. pneumoniae T6474, 1 µg/mL (≈ 1.84 µM); in the assay with P. aeruginosa ATCC 27853, 1 µg/mL (≈ 1.84 µM).
Regarding `CN1CC[C@H](Oc2ccnc(-c3cccc(CNCC[C@H]4CN(c5ccc6c(n5)NC(=O)CO6)C(=O)O4)c3)n2)C1` [Example $137, 6-[(S)-5-(2-{3-[4-((S)-1-methyl-pyrrolidin-3-yloxy)-pyrimidin-2-yl]-benzylamino}-ethyl)-2-oxo-oxazolidin-3-yl]-4H-pyrido[3,2-b][1,4]oxazin-3-one], the MIC against S. aureus A798 amounted to 0.5 µg/mL (≈ 0.916 µM); in the assay with E. coli ATCC25922, 1 µg/mL (≈ 1.83 µM); with K. pneumoniae T6474, 1 µg/mL (≈ 1.83 µM); in the assay with P. aeruginosa ATCC 27853, 1 µg/mL (≈ 1.83 µM).
In the case of `NCCOc1cccc(-c2cccc(CNCC[C@@H]3CN(c4ccc5c(c4)NC(=O)CS5)C(=O)O3)c2)n1` [Example 22, 6-[(R)-5-(2-{3-[6-(2-amino-ethoxy)-pyridin-2-yl]-benzylamino}-ethyl)-2-oxo-oxazolidin-3-yl]-4H-benzo[1,4]thiazin-3-one], the MIC in the assay on S. aureus A798 turned out to be 0.5 µg/mL (≈ 0.962 µM); against E. coli ATCC25922 it was 0.5 µg/mL (≈ 0.962 µM); with K. pneumoniae T6474, 2 µg/mL (≈ 3.85 µM); against P. aeruginosa ATCC 27853, 0.5 µg/mL (≈ 0.962 µM).
`CN1CC[C@H](Oc2cccc(-c3cccc(CNCC[C@@H]4CN(c5ccc6c(c5)NC(=O)CS6)C(=O)O4)c3)n2)C1` [Example $150, 6-[(R)-5-(2-{3-[6-((S)-1-methyl-pyrrolidin-3-yloxy)-pyridin-2-yl]-benzylamino}-ethyl)-2-oxo-oxazolidin-3-yl]-4H-benzo[1,4]thiazin-3-one]: the minimal inhibitory concentration (MIC) in the assay with S. aureus A798, in the assay on E. coli ATCC25922, against K. pneumoniae T6474 and against P. aeruginosa ATCC 27853 was 2 µg/mL (≈ 3.57 µM) in each case.
With `CCN1CCC(Oc2cccc(-c3cccc(CNCC[C@H]4CN(c5ccc6c(n5)NC(=O)CO6)C(=O)O4)c3)n2)C1` (mixture of isomers) [Example $126, 6-[(S)-5-(2-{3-[6-((RS)-1-ethyl-pyrrolidin-3-yloxy)-pyridin-2-yl]-benzylamino}-ethyl)-2-oxo-oxazolidin-3-yl]-4H-pyrido[3,2-b][1,4]oxazin-3-one], the MIC in the assay with S. aureus A798 came to 0.5 µg/mL; against E. coli ATCC25922, 1 µg/mL; with K. pneumoniae T6474, 2 µg/mL; with P. aeruginosa ATCC 27853, 2 µg/mL.
As for `O=C1COc2ccc(N3C[C@@H](CCNCc4cccc(-c5cccc(OC[C@@H]6CCN6)n5)c4)OC3=O)nc2N1` [Example $151, 6-[(R)-5-(2-{3-[6-((S)-1-azetidin-2-ylmethoxy)-pyridin-2-yl]-benzylamino}-ethyl)-2-oxo-oxazolidin-3-yl]-4H-pyrido[3,2-b][1,4]oxazin-3-one], the MIC in the assay on S. aureus A798 was found to be 4 µg/mL (≈ 7.54 µM); in the assay on E. coli ATCC25922, 2 µg/mL (≈ 3.77 µM); in the assay with K. pneumoniae T6474 it was 2 µg/mL (≈ 3.77 µM); with P. aeruginosa ATCC 27853, 1 µg/mL (≈ 1.88 µM).
As to `C[C@@H]1NCC[C@@H]1Oc1cccc(-c2cccc(CNCC[C@H]3CN(c4ccc5c(n4)NC(=O)CO5)C(=O)O3)c2)n1` (relative stereo) [Example $172, 6-[(S)-5-(2-{3-[6-((2S*,3S*)-2-methyl-pyrrolidin-3-yloxy)-pyridin-2-yl]-benzylamino}-ethyl)-2-oxo-oxazolidin-3-yl]-4H-pyrido[3,2-b][1,4]oxazin-3-one], the minimal inhibitory concentration (MIC) against S. aureus A798 is 0.5 µg/mL (≈ 0.918 µM); with E. coli ATCC25922 it was 1 µg/mL (≈ 1.84 µM); in the assay on K. pneumoniae T6474, 2 µg/mL (≈ 3.67 µM); in the assay on P. aeruginosa ATCC 27853 it was 0.5 µg/mL (≈ 0.918 µM).
`C[C@H]1NC[C@H]1Oc1cccc(-c2cccc(CNCC[C@H]3CN(c4ccc5c(n4)NC(=O)CO5)C(=O)O3)c2)n1` (mixture of isomers) [Example $135, 6-[(S)-5-(2-{3-[6-((2RS,3RS)-2-methyl-azetidin-3-yloxy)-pyridin-2-yl]-benzylamino}-ethyl)-2-oxo-oxazolidin-3-yl]-4H-pyrido[3,2-b][1,4]oxazin-3-one]: the MIC in the assay on S. aureus A798 amounted to 0.5 µg/mL; against E. coli ATCC25922 it was 0.5 µg/mL; with K. pneumoniae T6474, 1 µg/mL; in the assay on P. aeruginosa ATCC 27853 it was 0.5 µg/mL.
Take `CN1CC(Oc2cccc(-c3cc(CNCC[C@H]4CN(c5ccc6c(n5)NC(=O)CO6)C(=O)O4)ccn3)n2)C1` [Example $185, 6-[(S)-5-(2-{[6′-(1-methyl-azetidin-3-yloxy)-[2,2′]bipyridinyl-4-ylmethyl]-amino}-ethyl)-2-oxo-oxazolidin-3-yl]-4H-pyrido[3,2-b][1,4]oxazin-3-one]: the MIC with S. aureus A798 was 0.125 µg/mL (≈ 0.235 µM); against E. coli ATCC25922, 0.5 µg/mL (≈ 0.941 µM); in the assay on K. pneumoniae T6474, 0.5 µg/mL (≈ 0.941 µM); against P. aeruginosa ATCC 27853 it was 1 µg/mL (≈ 1.88 µM).
On to `CN1CC(Oc2cncc(-c3cncc(CNCC[C@H]4CN(c5ccc6c(n5)NC(=O)CO6)C(=O)O4)c3)n2)C1` [Example $190, 6-{(S)-5-[2-({5-[6-(1-methyl-azetidin-3-yloxy)-pyrazin-2-yl]-pyridin-3-ylmethyl}-amino)-ethyl]-2-oxo-oxazolidin-3-yl}-4H-pyrido[3,2-b][1,4]oxazin-3-one], for which the MIC against S. aureus A798 amounted to 4 µg/mL (≈ 7.51 µM); against E. coli ATCC25922 it was 2 µg/mL (≈ 3.76 µM); in the assay with K. pneumoniae T6474, 4 µg/mL (≈ 7.51 µM); with P. aeruginosa ATCC 27853 it was 4 µg/mL (≈ 7.51 µM).
For `CO[C@H]1CNC[C@H]1Oc1cccc(-c2cccc(CNCC[C@H]3CN(c4ccc5c(n4)NC(=O)CO5)C(=O)O3)c2)n1` (relative stereo) [Example $184, (3R*,4S*)-6-[(S)-5-(2-{3-[6-(4-methoxy-pyrrolidin-3-yloxy)-pyridin-2-yl]-benzylamino}-ethyl)-2-oxo-oxazolidin-3-yl]-4H-pyrido[3,2-b][1,4]oxazin-3-one], the MIC was 8 µg/mL (≈ 14.3 µM) in the assay with S. aureus A798, 4 µg/mL (≈ 7.14 µM) with E. coli ATCC25922, 8 µg/mL (≈ 14.3 µM) in the assay with K. pneumoniae T6474 and 2 µg/mL (≈ 3.57 µM) in the assay with P. aeruginosa ATCC 27853.
For the compound `NCCOc1cncc(-c2cccc(CNCC[C@H]3CN(c4ccc5c(n4)NC(=O)CO5)C(=O)O3)c2)c1` [Example 11, 6-[(S)-5-(2-{3-[5-(2-amino-ethoxy)-pyridin-3-yl]-benzylamino}-ethyl)-2-oxo-oxazolidin-3-yl]-4H-pyrido[3,2-b][1,4]oxazin-3-one], the MIC stood at 2 µg/mL (≈ 3.96 µM) against S. aureus A798, 2 µg/mL (≈ 3.96 µM) with E. coli ATCC25922, 4 µg/mL (≈ 7.93 µM) in the assay on K. pneumoniae T6474 and 1 µg/mL (≈ 1.98 µM) with P. aeruginosa ATCC 27853.
As for `NCCOc1ccnc(-c2ccnc(CNCC[C@H]3CN(c4ccc5c(n4)NC(=O)CO5)C(=O)O3)c2)c1` [Example $157, 6-[(S)-5-(2-{[4-(2-amino-ethoxy)-[2,4′]bipyridinyl-2′-ylmethyl]-amino}-ethyl)-2-oxo-oxazolidin-3-yl]-4H-pyrido[3,2-b][1,4]oxazin-3-one], the MIC stood at 8 µg/mL (≈ 15.8 µM) against S. aureus A798, 4 µg/mL (≈ 7.91 µM) against E. coli ATCC25922, 16 µg/mL (≈ 31.6 µM) in the assay with K. pneumoniae T6474 and 1 µg/mL (≈ 1.98 µM) in the assay on P. aeruginosa ATCC 27853.
On the same counts, the results for `NCCN(CCN)CCOc1cccc(-c2cccc(CNCC[C@H]3CN(c4ccc5c(n4)NC(=O)CO5)C(=O)O3)c2)c1` [Example $155, 6-((S)-5-{2-[(3′-{2-[bis-(2-amino-ethyl)-amino]-ethoxy}-biphenyl-3-ylmethyl)-amino]-ethyl}-2-oxo-oxazolidin-3-yl)-4H-pyrido[3,2-b][1,4]oxazin-3-one] are 1 µg/mL (≈ 1.7 µM), 2 µg/mL (≈ 3.39 µM), 16 µg/mL (≈ 27.1 µM) and 2 µg/mL (≈ 3.39 µM).
On the same counts, the results for `CN1CC[C@H](Oc2cncc(-c3cc(CNCC[C@H]4CN(c5ccc6c(n5)NC(=O)CO6)C(=O)O4)ccn3)n2)C1` [Example $147, 6-{(S)-5-[2-({2-[6-((S)-1-methyl-pyrrolidin-3-yloxy)-pyrazin-2-yl]-pyridin-4-ylmethyl}-amino)-ethyl]-2-oxo-oxazolidin-3-yl}-4H-pyrido[3,2-b][1,4]oxazin-3-one] are 1 µg/mL (≈ 1.83 µM), 1 µg/mL (≈ 1.83 µM), 1 µg/mL (≈ 1.83 µM) and 4 µg/mL (≈ 7.32 µM).
